Test results as given in patent US9289464B2, “Method for diagnosing and treating NIS-expressing carcinomas and metastases” (priority 2002, dated 2016).

Assays:
[1] = test system: HEK-293 cells; assay: Iodide uptake assay in HEK-293 cells (analogous experiment); format: cell-based; details: results not shown
Description: (§1) Cells were cultured in plates with 24 wells (24 Well Plates) for 24 h. The cells were then washed and subsequently the substances to be tested (ciglitazone, trans-retinoic acid with or without KClO4) were added in fresh medium. […] After the incubation, the cells were washed twice with ice-cold RPMI 1640 and lysed in 2% SDS-PAGE sample buffer (0.0625 M Tris-HCl, pH 6.8) with 1 U/μl Benzonase (Merck KgaA, Darmstadt, Germany). The ^125I uptake was measured in a gamma counter. An aliquot of each sample was employed to determine the protein concentration using the DC protein determination kit from Bio-Rad (Munich, Germany) in order thus to achieve standardization with different numbers of cells.

[2] = test system: choriocarcinoma cell line JEG-3; details: cited from earlier work
[3] = test system: non-small-cell lung cancer cell line H460; details: cited from earlier work
[4] = test system: breast cancer cell line MCF-7; assay: Iodide uptake assay (Na125I) in MCF-7 cells; format: cell-based, human
Description: as §1, with “All the cell lines used herein were purchased from the Deutschen Sammlung von Mikroorganismen und Zelikulturen (DSMZ; Brunswick, Germany, DSMZ No.: MCF-7 (ACC 115)). MCF-7 cells were cultured in RPMI 1640 medium with 10% FCS (fetal calf serum) and addition of 1× nonessential amino acids, 0.01 mg/ml bovine insulin and 5% penicillin/streptomycin. The HeLa cells were cultured in RPMI 1640 medium. All the reagents for the cell culture were, unless indicated otherwise, purchased from Invitrogen, Karlsruhe, Germany. Cells” for “Cells”

[5] = test system: NIS mRNA; assay: NIS mRNA concentration in treated cells; format: cell-based; details: cells treated with tRA
[6] = test system: prostate cancer cell line LNCaP; details: cited from earlier work
[7] = test system: non-small-cell lung cancer cell line A549; details: cited from earlier work
[8] = test system: cervical carcinoma cell line HeLa; assay: Iodide uptake assay (Na125I) in HeLa cells; format: cell-based; details: 1 μM tRA with or without 5 μM CIG, 48 h
Description: as §1, with “All the cell lines used herein were purchased from the Deutschen Sammlung von Mikroorganismen und Zelikulturen (DSMZ; Brunswick, Germany, DSMZ No.: MCF-7 (ACC 115)). MCF-7 cells were cultured in RPMI 1640 medium with 10% FCS (fetal calf serum) and addition of 1× nonessential amino acids, 0.01 mg/ml bovine insulin and 5% penicillin/streptomycin. The HeLa cells were cultured in RPMI 1640 medium. All the reagents for the cell culture were, unless indicated otherwise, purchased from Invitrogen, Karlsruhe, Germany. Cells” for “Cells”

[9] = biological target: T1, NIS (Homo sapiens, UniProt Q92911); assay: Blocking experiments: iodide uptake in presence of KClO4; format: cell-based; details: 30 mM KClO4; MCF-7 treated with tRA with or without CIG
T1 construct: NIS gene expression is increased synergistically by treatment of CIG in combination with retinoic acid in the breast cancer cell line MCF-7; endogenous in cells; host or cells: MCF-7 (DSMZ ACC 115)
T1 sequence (Q92911 1-643): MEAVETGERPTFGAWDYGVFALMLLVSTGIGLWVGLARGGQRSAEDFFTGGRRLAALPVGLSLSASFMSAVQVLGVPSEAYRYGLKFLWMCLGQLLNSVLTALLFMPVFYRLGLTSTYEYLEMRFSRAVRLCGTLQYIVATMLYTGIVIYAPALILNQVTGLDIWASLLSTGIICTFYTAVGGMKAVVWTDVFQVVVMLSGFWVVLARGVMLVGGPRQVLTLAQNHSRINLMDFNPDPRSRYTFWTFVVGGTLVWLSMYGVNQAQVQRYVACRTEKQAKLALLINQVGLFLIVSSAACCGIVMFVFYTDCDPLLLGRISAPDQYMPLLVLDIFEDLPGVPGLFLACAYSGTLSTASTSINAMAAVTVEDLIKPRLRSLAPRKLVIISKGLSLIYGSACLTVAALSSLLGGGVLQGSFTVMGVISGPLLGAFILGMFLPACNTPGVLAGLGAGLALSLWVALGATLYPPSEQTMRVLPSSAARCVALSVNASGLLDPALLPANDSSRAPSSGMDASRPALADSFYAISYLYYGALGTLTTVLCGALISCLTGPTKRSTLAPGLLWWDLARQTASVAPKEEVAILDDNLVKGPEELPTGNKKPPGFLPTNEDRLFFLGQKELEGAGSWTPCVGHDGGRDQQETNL
Description: Cells were cultured in plates with 24 wells (24 Well Plates) for 24 h. The cells were then washed and subsequently the substances to be tested (ciglitazone, trans-retinoic acid with or without KClO4) were added in fresh medium. For the iodide uptake, the cells were first washed twice in prewarmed RPMI 1640 medium without FCS, and then incubated in 1 ml of RPMI 1640 without FCS which comprised 0.1 μCi/ml Na^125I (specific activity: 10 mCi/mmol, Amersham Biosciences, Freiburg, Germany) and 10 μM NaI/well for 1 h.
After the incubation, the cells were washed twice with ice-cold RPMI 1640 and lysed in 2% SDS-PAGE sample buffer (0.0625 M Tris-HCl, pH 6.8) with 1 U/μl Benzonase (Merck KgaA, Darmstadt, Germany). The ^125I uptake was measured in a gamma counter. An aliquot of each sample was employed to determine the protein concentration using the DC protein determination kit from Bio-Rad (Munich, Germany) in order thus to achieve standardization with different numbers of cells.
In order to test the specificity of NIS-mediated iodide uptake, the experiments described in the previous exemplary embodiment were also carried out in the presence of 30 mM KClO4, the strongest specific NIS inhibitor.

## CC1=C(/C=C/C(C)=C/C=C/C(C)=C/C(=O)O)C(C)(C)CCC1 [tRA, trans-retinoic acid]
[1]
  induction of iodide uptake (in words): same results
[2]
  induction of iodide uptake: does not induce iodide uptake
[3]
  induction of iodide uptake: does not induce iodide uptake
[4]; 1 μM tRA
  time at which maximum iodide uptake was reached: 48 h
[5]
  concentration of NIS mRNA: distinctly increased
[6]
  induction of iodide uptake: does not induce iodide uptake
[7]
  induction of iodide uptake: does not induce iodide uptake
[8]
  induction of iodide uptake (in words): no induction of iodide uptake

## CC1(COc2ccc(CC3SC(=O)NC3=O)cc2)CCCCC1 (stereo not shown) [CIG, ciglitazone]
[4]; 1 μM tRA and/or 5 μM CIG
  effect on iodide uptake (in words): no effect

## [K+].[O-][Cl+3]([O-])([O-])[O-] [KClO4]
[9]
  effect on iodide uptake of breast cancer cells (NIS blocking): inhibited
